Source: ChEMBL document CHEMBL5058541, “EUbOPEN Chemogenomics Library 2 (NanoBRET)” (2022)

Columns and labels:
[1] = target: T1, YEATS domain-containing protein 2 (Homo sapiens) (UniProt Q9ULM3); experiment: Thermal Shift Assay. Domain: start/stop M1-D141; conditions: Compound concentration 25.0 uM, Protein concentration 2.0 uM
T1 sequence (whole entry): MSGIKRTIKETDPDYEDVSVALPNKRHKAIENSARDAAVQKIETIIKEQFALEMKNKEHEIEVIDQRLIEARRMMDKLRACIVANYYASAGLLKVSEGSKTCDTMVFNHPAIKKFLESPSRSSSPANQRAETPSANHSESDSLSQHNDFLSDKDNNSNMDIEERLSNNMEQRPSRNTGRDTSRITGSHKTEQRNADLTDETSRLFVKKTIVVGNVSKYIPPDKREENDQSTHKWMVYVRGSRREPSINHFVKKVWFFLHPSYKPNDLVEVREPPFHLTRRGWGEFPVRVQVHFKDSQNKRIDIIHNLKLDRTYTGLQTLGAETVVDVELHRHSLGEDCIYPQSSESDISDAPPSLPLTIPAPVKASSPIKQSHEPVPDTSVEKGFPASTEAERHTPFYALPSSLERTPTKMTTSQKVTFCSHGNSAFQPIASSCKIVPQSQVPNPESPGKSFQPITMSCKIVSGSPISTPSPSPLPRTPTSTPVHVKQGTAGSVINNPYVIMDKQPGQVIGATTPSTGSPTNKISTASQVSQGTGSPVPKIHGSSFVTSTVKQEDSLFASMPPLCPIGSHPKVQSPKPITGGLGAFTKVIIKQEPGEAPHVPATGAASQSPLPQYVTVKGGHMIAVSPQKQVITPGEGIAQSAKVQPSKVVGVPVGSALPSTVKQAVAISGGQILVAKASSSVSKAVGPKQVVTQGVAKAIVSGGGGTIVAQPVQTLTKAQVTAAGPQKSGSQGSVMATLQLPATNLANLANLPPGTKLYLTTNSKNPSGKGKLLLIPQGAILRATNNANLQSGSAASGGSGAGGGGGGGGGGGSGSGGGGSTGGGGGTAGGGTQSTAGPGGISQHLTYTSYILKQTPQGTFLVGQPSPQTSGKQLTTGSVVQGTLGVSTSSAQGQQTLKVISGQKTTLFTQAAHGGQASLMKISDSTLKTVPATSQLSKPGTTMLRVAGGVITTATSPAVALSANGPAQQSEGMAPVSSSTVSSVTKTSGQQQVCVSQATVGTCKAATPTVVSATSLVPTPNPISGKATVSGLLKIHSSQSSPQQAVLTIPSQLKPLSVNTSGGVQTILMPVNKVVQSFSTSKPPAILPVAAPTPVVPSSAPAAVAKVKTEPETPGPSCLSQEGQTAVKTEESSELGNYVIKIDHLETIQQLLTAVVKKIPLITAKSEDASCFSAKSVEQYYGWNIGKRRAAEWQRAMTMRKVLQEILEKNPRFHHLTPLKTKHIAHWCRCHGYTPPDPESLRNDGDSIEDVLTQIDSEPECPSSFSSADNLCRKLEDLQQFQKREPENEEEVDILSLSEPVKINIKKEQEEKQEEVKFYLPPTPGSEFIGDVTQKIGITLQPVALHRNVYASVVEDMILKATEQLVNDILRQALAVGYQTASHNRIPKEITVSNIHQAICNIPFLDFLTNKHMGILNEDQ

[2] = target: Fibroblast growth factor receptor 3 (Homo sapiens) (UniProt P22607); conditions: Compound concentration 20.0 uM, Protein concentration 2.0 uM, Result type QC Liability
Fibroblast growth factor receptor 3 (Homo sapiens), sequence (P22607 23-806 limits assumed): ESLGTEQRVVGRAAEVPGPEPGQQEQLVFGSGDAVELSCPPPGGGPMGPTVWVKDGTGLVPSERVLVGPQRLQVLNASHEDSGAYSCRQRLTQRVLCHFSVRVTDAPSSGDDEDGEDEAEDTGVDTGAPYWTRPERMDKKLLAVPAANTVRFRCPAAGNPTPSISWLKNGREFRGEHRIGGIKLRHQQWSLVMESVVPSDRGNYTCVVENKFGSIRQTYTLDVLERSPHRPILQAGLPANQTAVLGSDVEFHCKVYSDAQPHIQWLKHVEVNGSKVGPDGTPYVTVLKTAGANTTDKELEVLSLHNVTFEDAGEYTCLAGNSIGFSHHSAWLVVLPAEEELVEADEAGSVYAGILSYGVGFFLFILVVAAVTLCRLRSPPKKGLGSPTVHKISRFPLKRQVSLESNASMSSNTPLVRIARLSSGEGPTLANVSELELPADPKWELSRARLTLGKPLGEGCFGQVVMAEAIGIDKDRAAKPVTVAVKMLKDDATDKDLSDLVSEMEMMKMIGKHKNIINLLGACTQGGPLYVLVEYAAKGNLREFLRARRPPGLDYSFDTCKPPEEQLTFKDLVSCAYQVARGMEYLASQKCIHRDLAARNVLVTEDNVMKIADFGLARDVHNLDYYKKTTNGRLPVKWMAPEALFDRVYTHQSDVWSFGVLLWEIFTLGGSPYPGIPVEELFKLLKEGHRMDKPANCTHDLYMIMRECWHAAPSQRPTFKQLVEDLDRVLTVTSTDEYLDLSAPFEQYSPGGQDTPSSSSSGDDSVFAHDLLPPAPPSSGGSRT
Description: Thermal Shift Assay. Domain: start/stop: P449-E759

[3] = target: T2, Protein ENL (Homo sapiens) (UniProt Q03111); experiment: Thermal Shift Assay. Domain: start/stop M1-A148; conditions: Compound concentration 25.0 uM, Protein concentration 2.0 uM
T2 sequence (whole entry): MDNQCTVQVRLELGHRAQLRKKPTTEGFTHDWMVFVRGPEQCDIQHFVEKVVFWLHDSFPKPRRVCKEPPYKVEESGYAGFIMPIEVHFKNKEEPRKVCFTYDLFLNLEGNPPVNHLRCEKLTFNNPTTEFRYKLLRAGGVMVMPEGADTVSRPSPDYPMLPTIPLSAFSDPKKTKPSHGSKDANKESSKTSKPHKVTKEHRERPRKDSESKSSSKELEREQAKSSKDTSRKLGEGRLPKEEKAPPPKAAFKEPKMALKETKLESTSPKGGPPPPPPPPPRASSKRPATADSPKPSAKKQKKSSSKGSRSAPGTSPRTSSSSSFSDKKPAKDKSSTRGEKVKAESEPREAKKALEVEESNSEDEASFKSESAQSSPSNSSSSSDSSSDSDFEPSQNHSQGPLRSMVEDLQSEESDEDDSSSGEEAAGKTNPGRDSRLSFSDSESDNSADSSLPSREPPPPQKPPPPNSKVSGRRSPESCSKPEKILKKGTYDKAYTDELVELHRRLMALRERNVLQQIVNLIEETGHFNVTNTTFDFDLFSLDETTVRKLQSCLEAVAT

ΔTm [1]: -0.01 c
ΔTm [2]: -0.162 c
ΔTm [3]: 3.61 c
Compound: CN(C)C(=O)c1ccc(-c2cc(C(=O)N[C@@H]3CCc4ccccc43)no2)cc1O
